In US7759071B2, “Determination of apoptotic products in tumor patients undergoing therapy” (Roche Diagnostics, priority 1998, dated 2010):

Experiments:
[1] = tested on: metastasising pancreatic carcinoma; assay: Clinical course of the patient during chemotherapy; type: in vivo; details: one patient, FIG. 9
From the text: The effectiveness of tumour therapy can be determined by means of the remission rate on the basis of image generating processes (X-ray, computer tomography). By definition a complete remission is understood as the complete disappearance of the tumour for at least eight weeks and partial remission means a regression of the tumour manifestations by more than 50% with regard to their volume; no change reflects the state between a 50% decrease and a 25% increase of the tumour mass; progression denotes a progression of more than 25% (UICC criteria).

[2] = tested on: metastasising pancreatic carcinoma; assay: Nucleosome concentration in serum (Cell Death Detection plus ELISA) of a patient during chemotherapy; type: in vivo; details: one patient, FIG. 9; for nucleosome concentration in the serum after start of new therapy scheme: combination folic acid 300 mg/m^2 and 5-fluorouracil 500 mg/m^2 on each of days 1 to 5, only a partial decrease afterwards; for nucleosome concentration in the serum at the beginning of a cycle: combination Gemcitabine 1000 mg/m^2 (day 1, 8, 15) and Cisplatin 50 mg/m^2 (day 1, 15), then decreased slowly
Method: The Cell Death Detection^plus ELISA (Boehringer Mannheim, Cat. No. 1 774 425) is based on the quantitative sandwich enzyme immunoassay principle. Two monoclonal mouse antibodies are used which are directed against DNA and histones. The test can be carried out with cytoplasmic lysates, culture supernatants, plasma, serum and other body fluids and allows a specific detection of mononucleosomes and oligonucleosomes. The description given here applies to measurements in liquid media:
A 20 μl aliquot of the material to be tested is pipetted into a well of a streptavidin-coated microtitre plate (MTP). 80 μl of an immunoreagent composed of biotinylated anti-histone antibodies, peroxidase-labelled anti-DNA antibodies and incubation buffer (1% BSA, 0.5% Tween, 1 mM EDTA in PBS) is added, covered with an adhesive foil and incubated for 2 hours on a MTP shaker (500 rpm). During this incubation period the anti-histone antibody reacts with the histone component of the nucleosomes and immobilizes the complex via the biotin on the streptavidin-coated microtitre plate. In addition the anti-DNA antibody binds to the DNA component of the nucleosomes. In this process ds as well as ss DNA is recognized. After removing the antibody that is still unbound by washing three times with 300-400 μl incubation buffer in each case, the immobilized complexes are incubated with 100 μl ABTS (2,2′-azino-di(3-ethyl-benzthiazoline sulfonate), the MTP is sealed with an adhesive foil and shaken at 250 rpm. The substrate reacts with the peroxidase label of the anti-DNA antibody and causes a colour change that is proportional to these antibodies. After an adequate colour development period it is photometrically quantified at d=405 nm against the substrate solution as a blank (reference wavelength d=492 nm).
Therefore absolute concentration data are not used and a scale of so-called AUs (arbitrary units) is introduced. 1000 AU equates with the highest standard level (2500 mA after 30 min); the scale is linear. This therefore takes into account the lack of knowledge about the ratio of mononucleosomes to oligonucleosomes and the resulting variability concerning the amount of binding sites of the antibodies while at the same time increasing the comparability between the tests.
After thawing attention must be paid to adjustment to room temperature and careful homogenization of the sample material. The serum samples are diluted 1:4 with incubation buffer (20 μl serum, 60 μl incubation buffer) and subsequently used in the test.
The nucleosome content was measured in patients under chemotherapy before therapy and on the second and fourth day and one week after administration of the first dose and in addition weekly or before the start of the next treatment cycle.

[3] = combination folic acid and 5-fluorouracil, continuous increase of CEA
[4] = combination Gemcitabine and Cisplatin

| Compound | clinical course under therapy [1, 3] | nucleosome concentration in the serum after start of new therapy scheme [2] | clinical course under therapy [1, 4] | nucleosome concentration in the serum at the beginning of a cycle [2] |
| --- | --- | --- | --- | --- |
| O=c1[nH]cc(F)c(=O)[nH]1 [5-fluorouracil] | progressive course | rapid increase |  |  |
| N.N.[Cl][Pt][Cl] [Cisplatin] |  |  | clinical progressive deterioration | increased rapidly |
| Nc1ccn([C@@H]2O[C@H](CO)[C@@H](O)C2(F)F)c(=O)n1 [Gemcitabine] |  |  | clinical progressive deterioration | increased rapidly |
| Nc1nc2ncc(CNc3ccc(C(=O)N[C@@H](CCC(=O)O)C(=O)O)cc3)nc2c(=O)[nH]1 [folic acid] | progressive course | rapid increase |  |  |
